The target of assay [1] is α2b adrenergic receptor (Homo sapiens, UniProt P18089). Description: PDSP off-target binding. The settings on record: read-out: binding affinity α2b (PDSP). The source says: (§1) Further evaluation of the off-target binding of compound 6a was provided by the Psychoactive Drug Screening Program (PDSP) for a range of receptors including serotonin receptor subtypes, α-adrenergic receptor subtypes, β-adrenergic receptor subtypes, histaminergic receptor subtypes, muscarinic receptor subtypes, opioid receptor subtypes and the two sigma receptor subtypes.

The target in assay [2] is serotonin transporter (SERT) (Homo sapiens, UniProt P31645). The experiment in a line: PDSP off-target binding. The settings on record: read-out: binding affinity SERT (PDSP).
Description: as §1

Assay [3] addresses D4 dopamine receptor (Homo sapiens, UniProt P21917). Description: PDSP off-target binding. The settings on record: read-out: binding affinity D4 (PDSP).
Description: as §1

Assay [4] deals with α1d adrenergic receptor (Homo sapiens, UniProt P25100). Description: PDSP off-target binding. The settings on record: read-out: binding affinity α1d (PDSP).
Description: as §1

Assay [5] addresses α1b adrenergic receptor (Homo sapiens, UniProt P35368). The experiment in a line: PDSP off-target binding. As to conditions: read-out: binding affinity α1b (PDSP).
Description: as §1

The target of assay [6] is norepinephrine transporter (NET) (Homo sapiens, UniProt P23975). The experiment in a line: PDSP off-target binding. As to conditions: read-out: binding affinity NET (PDSP).
Description: as §1

Assay [7] concerns the target 5-HT7A receptor (Homo sapiens, UniProt P34969). Description: PDSP off-target binding. As to conditions: read-out: binding affinity 5-HT7A (PDSP).
Description: as §1

Assay [8] has as its target α1a adrenergic receptor (Homo sapiens, UniProt P35348). The experiment in a line: PDSP off-target binding. As to conditions: read-out: binding affinity α1a (PDSP).
Description: as §1

The target in assay [9] is T1, D3 dopamine receptor (Homo sapiens, UniProt P35462). Description: PDSP off-target binding. The settings on record: read-out: binding affinity D3 (PDSP).
Description: as §1

Assay [10] has as its target α2c adrenergic receptor (Homo sapiens, UniProt P18825). The experiment in a line: PDSP off-target binding. As to conditions: read-out: binding affinity α2c (PDSP).
Description: as §1

The target of assay [11] is 5-HT2B receptor (Homo sapiens, UniProt P41595). The experiment in a line: PDSP off-target binding. The settings on record: read-out: binding affinity 5-HT2B (PDSP).
Description: as §1

The target of assay [12] is dopamine transporter (DAT) (Homo sapiens, UniProt Q01959). The experiment in a line: PDSP off-target binding. The settings on record: read-out: binding affinity DAT (PDSP).
Description: as §1

In assay [13] the target is D5 dopamine receptor (Homo sapiens, UniProt P21918). The experiment in a line: PDSP off-target binding. As to conditions: in words.
Description: as §1

Assay [14] has as its target α2a adrenergic receptor (Homo sapiens, UniProt P08913). Description: PDSP off-target binding. The settings on record: read-out: binding affinity α2a (PDSP).
Description: as §1

Assay [15] deals with D1 dopamine receptor (Homo sapiens, UniProt P21728). The experiment in a line: PDSP off-target binding. As to conditions: in words.
Description: as §1

Assay [16] has as its target D2 dopamine receptor (Homo sapiens, UniProt P14416). Description: PDSP off-target binding. As to conditions: in words.
Description: as §1

Assay [17] addresses sigma-2 receptor (Homo sapiens, UniProt Q5BJF2). The experiment in a line: PDSP off-target binding. As to conditions: read-out: binding affinity sigma-2 (PDSP).
Description: as §1

In assay [18] the target is sigma-1 receptor (Homo sapiens, UniProt Q99720). Description: PDSP off-target binding. As to conditions: read-out: binding affinity sigma-1 (PDSP).
Description: as §1

The target of assay [19] is T1, D3 dopamine receptor. The experiment in a line: Forskolin-dependent adenylyl cyclase inhibition assay (cAMP-Glo, HEK cells). On the set-up: expressed in transfected cells; host or cells: HEK293. As to conditions: human D3, test compound at 10x Ki, normalized to quinpirole 10,000 nM. The class given is cell-based. The protocol:
(§2) Quinpirole was used as a reference prototypic full agonist and haloperidol was used as a reference prototypic antagonist.
The forskolin-dependent adenylyl cyclase inhibition assay was performed using a cAMP-Glo Assay kit (Promega). For this assay cAMP stimulates protein kinase A (PKA) activity, which leads to a decrease in ATP levels and a decrease in the luciferase-coupled production of light. This is a 96 well plate assay using HEK cells stably transfected to express the human D3 dopamine receptor (10,000 cells/well/0.1 mL complete media). After removing media and rinsing with phosphate buffered saline, cells were incubated with 20 μL of forskolin (6000 nM) and test compound or vehicle. […] After cells, test compound (or vehicle) and forskolin (or vehicle) were incubated for 15 min, cells were lysed using 20 μL lysis buffer (provided with the kit) and mixed for 15 min at room temperature. A cAMP Detection Solution (40 μL) was added to each well, gently mixed for 60 s and incubated at room temperature for 20 min. The Kinase-Glo Solution was added (40 μL) to terminate the PKA reaction. The reaction mixture was gently mixed for 60 s and then incubated at room temperature for 10 min. The remaining ATP was detected via a luciferase reaction. The plates were read using an Enspire Alpha 2390 Multilabel Reader/Luminometer. Haloperidol (200 nM) and quinpirole (10,000 nM) was used as a prototypic reference antagonist and full agonist, respectively.
(§3) Figure 3 Comparison of the Efficacy of Phenylthiophene Analogs for Adenylyl Cyclase Inhibition and β-Arrestin Binding at Human D3 Dopamine Receptors. […] Values were normalized to reference full agonist quinpirole (10,000 nM).

Assay [20] deals with T1, D3 dopamine receptor. The experiment in a line: β-arrestin binding assay (DiscoverX PathHunter, DRD3-U2OS cells). On the set-up: host or cells: U2OS (PathHunter eXpress DRD3-U2OS). As to conditions: human D3, test compound at 10x Ki, normalized to quinpirole. The class given is cell-based. The protocol:
as §2
The β-arrestin binding assay was performed using a DiscoverX Pathhunter® kit according to the manufacturer’s instructions. PathHunter® eXpress β-Arrestin GPCR cells are engineered to co-express the ProLink™ (PK) tagged GPCR and the Enzyme Acceptor (EA) tagged β-Arrestin. Activation of the GPCR-PK induces β-Arrestin-EA recruitment, forcing complementation of the two β-galactosidase enzyme fragments (EA and PK). The resulting functional enzyme hydrolyzes substrate to generate a chemiluminescent signal. DRD3-U2OS cells were seeded according to kit instructions into white plastic 96-well plates (provided with the kit) 48 h prior to the assay in a volume of 100 μL/well using the Cell Plating Reagent (CPR) provided. Vehicle or test drug, diluted in CPR, was added to the designated wells and incubated for 90 min at 37 °C. Working detection solution (a component provided with the kit) was added to the wells and incubated for 1 h in the dark at room temperature. As discussed for the cyclase assay, an Enspire Alpha 2390 Multilabel Reader/Luminometer was used to detect the luminescent signal with haloperidol and quinpirole used as reference antagonist and full agonist, respectively.
as §3

Molecules are shown by their SMILES.

T1 sequence (P35462 whole entry): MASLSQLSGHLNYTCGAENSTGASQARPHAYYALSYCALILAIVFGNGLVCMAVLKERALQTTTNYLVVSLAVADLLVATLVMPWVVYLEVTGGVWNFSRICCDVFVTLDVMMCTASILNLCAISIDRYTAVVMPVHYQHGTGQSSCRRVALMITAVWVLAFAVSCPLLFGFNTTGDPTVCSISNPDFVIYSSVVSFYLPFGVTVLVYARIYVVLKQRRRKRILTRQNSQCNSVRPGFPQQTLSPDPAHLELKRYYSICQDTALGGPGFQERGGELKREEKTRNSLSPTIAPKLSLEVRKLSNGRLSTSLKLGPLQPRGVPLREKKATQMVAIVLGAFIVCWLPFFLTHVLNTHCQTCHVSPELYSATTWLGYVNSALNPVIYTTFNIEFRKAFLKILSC
sigma-1 receptor, sequence (Q99720 whole entry, species assumed): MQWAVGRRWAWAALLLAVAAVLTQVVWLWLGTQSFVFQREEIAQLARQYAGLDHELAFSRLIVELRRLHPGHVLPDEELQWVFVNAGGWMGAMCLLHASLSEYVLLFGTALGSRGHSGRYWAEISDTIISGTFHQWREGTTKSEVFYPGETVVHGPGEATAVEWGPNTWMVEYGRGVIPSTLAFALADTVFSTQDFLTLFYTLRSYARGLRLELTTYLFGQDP
5-HT7A receptor, sequence (P34969 1-445 isoform P34969-2): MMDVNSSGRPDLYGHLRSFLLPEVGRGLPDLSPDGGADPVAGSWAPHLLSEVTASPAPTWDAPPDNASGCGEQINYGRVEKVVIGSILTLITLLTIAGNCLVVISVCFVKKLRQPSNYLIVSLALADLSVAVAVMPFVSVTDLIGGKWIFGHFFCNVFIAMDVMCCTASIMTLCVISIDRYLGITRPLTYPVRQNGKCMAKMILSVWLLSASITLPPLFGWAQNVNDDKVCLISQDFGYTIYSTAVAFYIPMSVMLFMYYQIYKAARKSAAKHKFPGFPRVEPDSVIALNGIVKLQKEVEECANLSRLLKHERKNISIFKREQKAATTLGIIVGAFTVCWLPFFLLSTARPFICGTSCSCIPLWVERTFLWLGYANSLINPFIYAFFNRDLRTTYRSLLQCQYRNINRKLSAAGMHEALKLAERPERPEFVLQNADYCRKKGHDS
sigma-2 receptor, sequence (Q5BJF2 whole entry, species assumed): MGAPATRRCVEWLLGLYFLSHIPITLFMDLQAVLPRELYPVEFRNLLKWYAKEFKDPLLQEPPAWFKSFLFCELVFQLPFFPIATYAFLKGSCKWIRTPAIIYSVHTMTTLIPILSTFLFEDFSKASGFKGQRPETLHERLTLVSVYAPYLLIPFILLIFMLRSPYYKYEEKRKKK
D2 dopamine receptor, sequence (P14416 whole entry): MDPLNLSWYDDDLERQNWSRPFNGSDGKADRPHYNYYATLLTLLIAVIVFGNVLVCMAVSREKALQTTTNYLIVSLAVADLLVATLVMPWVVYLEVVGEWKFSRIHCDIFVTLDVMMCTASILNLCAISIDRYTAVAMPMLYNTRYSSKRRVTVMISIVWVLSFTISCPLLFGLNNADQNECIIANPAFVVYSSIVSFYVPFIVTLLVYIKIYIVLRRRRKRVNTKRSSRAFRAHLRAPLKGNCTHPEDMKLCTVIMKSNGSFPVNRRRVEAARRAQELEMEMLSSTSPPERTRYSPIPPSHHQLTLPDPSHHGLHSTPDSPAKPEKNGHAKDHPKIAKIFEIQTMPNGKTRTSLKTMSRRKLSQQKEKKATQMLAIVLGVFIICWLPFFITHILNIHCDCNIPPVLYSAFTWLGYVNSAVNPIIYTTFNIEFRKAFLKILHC
norepinephrine transporter (NET), sequence (P23975 whole entry, species assumed): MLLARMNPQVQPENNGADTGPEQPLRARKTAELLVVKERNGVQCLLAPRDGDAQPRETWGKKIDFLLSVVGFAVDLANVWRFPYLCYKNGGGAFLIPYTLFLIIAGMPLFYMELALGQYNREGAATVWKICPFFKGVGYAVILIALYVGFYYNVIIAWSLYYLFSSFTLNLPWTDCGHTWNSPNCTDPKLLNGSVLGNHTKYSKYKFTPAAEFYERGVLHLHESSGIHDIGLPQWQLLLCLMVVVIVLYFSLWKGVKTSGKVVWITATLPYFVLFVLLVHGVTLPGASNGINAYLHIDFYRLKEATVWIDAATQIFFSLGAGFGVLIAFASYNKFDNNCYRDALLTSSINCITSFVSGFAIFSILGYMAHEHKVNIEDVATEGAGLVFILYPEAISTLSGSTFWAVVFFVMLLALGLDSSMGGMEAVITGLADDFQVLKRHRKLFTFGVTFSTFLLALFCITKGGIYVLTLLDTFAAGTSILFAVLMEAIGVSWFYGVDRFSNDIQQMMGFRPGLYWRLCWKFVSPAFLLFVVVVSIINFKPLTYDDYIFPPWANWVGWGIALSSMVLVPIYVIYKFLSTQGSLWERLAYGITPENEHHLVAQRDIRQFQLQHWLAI
5-HT2B receptor, sequence (P41595 whole entry): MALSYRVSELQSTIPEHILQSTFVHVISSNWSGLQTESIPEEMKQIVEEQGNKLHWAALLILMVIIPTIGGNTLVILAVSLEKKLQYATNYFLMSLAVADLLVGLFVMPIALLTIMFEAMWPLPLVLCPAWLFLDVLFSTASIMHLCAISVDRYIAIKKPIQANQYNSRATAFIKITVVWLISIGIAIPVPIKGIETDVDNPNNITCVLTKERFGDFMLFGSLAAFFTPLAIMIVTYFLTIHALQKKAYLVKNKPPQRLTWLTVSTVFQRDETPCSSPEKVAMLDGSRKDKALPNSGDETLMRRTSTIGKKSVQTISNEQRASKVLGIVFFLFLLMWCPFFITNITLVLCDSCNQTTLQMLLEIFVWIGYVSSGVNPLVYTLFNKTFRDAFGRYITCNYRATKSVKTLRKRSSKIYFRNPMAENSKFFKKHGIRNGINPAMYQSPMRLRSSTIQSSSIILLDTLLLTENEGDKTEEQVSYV
serotonin transporter (SERT), sequence (P31645 whole entry, species assumed): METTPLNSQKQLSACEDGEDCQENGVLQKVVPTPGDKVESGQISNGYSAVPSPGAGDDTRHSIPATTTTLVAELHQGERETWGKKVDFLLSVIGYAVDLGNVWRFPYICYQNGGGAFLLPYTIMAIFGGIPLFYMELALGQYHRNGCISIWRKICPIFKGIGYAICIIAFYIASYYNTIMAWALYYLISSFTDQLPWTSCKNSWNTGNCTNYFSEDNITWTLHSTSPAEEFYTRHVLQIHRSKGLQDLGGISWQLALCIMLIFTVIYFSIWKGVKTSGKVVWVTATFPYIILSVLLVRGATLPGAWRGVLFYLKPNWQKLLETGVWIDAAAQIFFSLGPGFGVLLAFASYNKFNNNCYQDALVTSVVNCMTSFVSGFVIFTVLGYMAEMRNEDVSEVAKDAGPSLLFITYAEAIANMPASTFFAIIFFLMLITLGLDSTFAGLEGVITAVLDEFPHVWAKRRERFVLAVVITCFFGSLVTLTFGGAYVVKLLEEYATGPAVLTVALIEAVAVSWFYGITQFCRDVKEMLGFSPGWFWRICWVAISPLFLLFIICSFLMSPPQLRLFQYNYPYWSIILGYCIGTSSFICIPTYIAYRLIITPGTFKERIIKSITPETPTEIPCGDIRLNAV
α2c adrenergic receptor, sequence (P18825 whole entry): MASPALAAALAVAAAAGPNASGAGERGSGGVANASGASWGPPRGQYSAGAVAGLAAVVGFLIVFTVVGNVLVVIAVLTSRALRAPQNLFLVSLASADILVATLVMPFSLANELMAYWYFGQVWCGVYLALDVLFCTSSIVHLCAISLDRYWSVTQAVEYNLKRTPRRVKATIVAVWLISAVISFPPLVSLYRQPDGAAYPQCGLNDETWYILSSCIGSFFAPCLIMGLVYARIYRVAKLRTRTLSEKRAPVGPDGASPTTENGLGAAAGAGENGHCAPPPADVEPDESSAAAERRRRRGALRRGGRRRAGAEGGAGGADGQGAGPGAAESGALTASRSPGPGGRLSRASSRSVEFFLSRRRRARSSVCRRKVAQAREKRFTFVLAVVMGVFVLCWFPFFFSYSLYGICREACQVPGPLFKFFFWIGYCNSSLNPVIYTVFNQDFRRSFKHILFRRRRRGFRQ
α2b adrenergic receptor, sequence (P18089 whole entry): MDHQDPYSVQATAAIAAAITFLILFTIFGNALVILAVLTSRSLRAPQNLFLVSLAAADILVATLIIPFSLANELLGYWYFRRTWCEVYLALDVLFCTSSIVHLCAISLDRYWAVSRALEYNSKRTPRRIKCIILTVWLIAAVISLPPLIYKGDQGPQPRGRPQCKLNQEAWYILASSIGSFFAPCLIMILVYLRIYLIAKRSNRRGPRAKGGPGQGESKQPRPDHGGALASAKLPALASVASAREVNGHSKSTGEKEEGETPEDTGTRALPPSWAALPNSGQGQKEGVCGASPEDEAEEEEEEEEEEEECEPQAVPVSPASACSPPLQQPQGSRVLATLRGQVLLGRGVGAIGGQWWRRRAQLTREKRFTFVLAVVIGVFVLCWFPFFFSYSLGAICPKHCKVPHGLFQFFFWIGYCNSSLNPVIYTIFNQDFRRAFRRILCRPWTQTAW
α1b adrenergic receptor, sequence (P35368 whole entry): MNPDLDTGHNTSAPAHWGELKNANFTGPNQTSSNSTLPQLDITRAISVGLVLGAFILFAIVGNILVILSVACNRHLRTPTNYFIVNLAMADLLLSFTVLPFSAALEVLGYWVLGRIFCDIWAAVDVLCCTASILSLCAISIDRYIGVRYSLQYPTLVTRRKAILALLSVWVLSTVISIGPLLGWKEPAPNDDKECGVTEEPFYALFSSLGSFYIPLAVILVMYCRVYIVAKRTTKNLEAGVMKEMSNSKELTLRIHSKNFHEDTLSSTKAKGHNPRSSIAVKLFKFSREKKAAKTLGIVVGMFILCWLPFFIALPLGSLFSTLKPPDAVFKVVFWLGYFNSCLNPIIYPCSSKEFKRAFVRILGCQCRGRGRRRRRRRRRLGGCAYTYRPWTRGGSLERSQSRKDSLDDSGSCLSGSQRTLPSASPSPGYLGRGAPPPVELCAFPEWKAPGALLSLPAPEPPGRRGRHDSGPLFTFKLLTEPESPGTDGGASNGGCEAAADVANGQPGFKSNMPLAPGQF

Take `O=C(NCCCCN1CCN(c2ccccc2F)CC1)c1ccc(-c2ccsc2)cc1` [Compound 6a]: the Ki is > 0.1 µM in assay [1]; > 0.75 µM in assay [2]; > 1.5 µM in [3]; 0.0166 µM in assay [4]; > 0.1 µM in [5]; > 0.65 µM in assay [6]. Moreover, the Ki was 0.0736 µM in assay [7]; 0.0098 µM in [8]; 0.0002 µM in assay [9]; 0.0271 µM in assay [10]; 0.0363 µM in [11]; > 0.19 µM in assay [12]. Moreover, the results for the Ki in assay [14], in assay [17] and in assay [18] were 0.0152 µM, 0.0331 µM and > 0.175 µM, respectively. Besides, the “binding affinity D5 (PDSP)” value in assay [13] was “low affinity binding”. Further, the “binding affinity D1 (PDSP)” value in assay [15] is recorded as “low affinity binding”. The “binding affinity D2 (PDSP)” value in assay [16] is “low affinity binding”. Also, the “efficacy in adenylyl cyclase inhibition assay” value in [19] is on record as “weak partial agonists”. For the same compound, the “efficacy in β-arrestin binding assay” value in assay [20] is reported as “weak partial agonists”.

The values above are taken from paper PMC8198181, “Evaluation of Substituted N-Phenylpiperazine Analogs as D3 vs. D2 Dopamine Receptor Subtype Selective Ligands” (Molecules, 2021).
